From patent publication US20130157858A1, “METHODS AND SYSTEMS USEFUL FOR C[…] WATERMILFOIL” (priority 2011, published 2013)

What was measured:
[1] = test system: hybrid milfoil population; conditions: hybrid milfoil population (B), 6 weeks following applications of various rates, FIG. 2; cited from earlier work
[2] = test system: auxin herbicide sensitive Eurasian milfoil biotype; conditions: Eurasian milfoil biotype (A), 6 weeks following applications of various rates, FIG. 2; cited from earlier work
[3] = test system: tolerant hybrid milfoil lineage from an Upper Midwest US lake; test: 14-day laboratory apical tissue assay, fluridone herbicide response (beta-carotene); type: in vivo, hybrid (Northern×Eurasian) watermilfoil; conditions: 14-day apical tissue assay, various rates of fluridone, compared with the susceptible reference Eurasian milfoil lineage (EWM), n=4, FIG. 3
Source text: FIG. 3 depicts fluridone herbicide response of a tolerant hybrid milfoil lineage from an Upper Midwest US lake compared to response of a susceptible reference Eurasian milfoil lineage (EWM) in a 14-day laboratory apical tissue assay. […] Error bars are +1 standard deviation (n=4).

Molecule	response in aboveground biomass (sensitivity/tolerance) [1]	response in aboveground biomass (sensitivity/tolerance) [2]	beta-carotene reduction [3]
O=C(O)COc1ccc(Cl)cc1Cl [2,4-d, 2,4-dichlorophenoxyacetic acid]	displaying auxin tolerance	sensitive	
O=C(O)COc1nc(Cl)c(Cl)cc1Cl [triclopyr]	displaying auxin tolerance	sensitive	
fluridone			less beta-carotene reduction for the tolerant hybrid lineage versus the reference Eurasian lineage
